From BindingDB's records for doi:10.1021/jm800369f (Amgen, 2008)

Target: Corticosteroid 11-beta-dehydrogenase isozyme 1
Experiment: Inhibition of human recombinant 11beta-HSD1 expressed in Pichia pastoris

- IC50: 14 nM
Structure (SMILES): O=C(Nc1cccc(C(=O)N2CCC[C@H]3CCCC[C@@H]32)c1)c1ccccc1 [N-(3-((4aR,8aS)-decahydroquinoline-1-carbonyl)phenyl)benzamide]
